“Also recorded” adds a separate entry of the source. Where two headings read alike, the source gives them in different places. Ends that are not written are not given here.
Legend:
hIKCa[H389E] channel = molecular target: T1, hIKCa[H389E] channel (Homo sapiens, UniProt O15554, H389E); test: Outside-out patch current inhibition, homomeric hIKCa[H389E]; type: cell-based; settings: TRAM-34 10 μM
T1 construct: expressed in transfected cells; host or cells: tsA201 cells
Protocol: (§1) TsA201 cells were maintained in culture at 37°C and 5% CO2, being grown in culture flasks with Dulbecco's Modified Eagle Medium (DMEM) supplemented with foetal bovine serum (10%) and penicillin and streptomycin (1%). Cells were passaged at ~80% confluence. The cDNA of KCa channel subunits and one encoding expression of enhanced green fluorescent protein (eGFP) (using pcDNA3.1 or equivalent vectors) were transfected into tsA201 cells using polyethylenimine (PEI) (Merck/Sigma, UK) at a concentration of 0.2 mg/mL (Higham et al., [2019]). Cells were used 48 h after transfection. All mutations were carried out using QuikChange II XL (Stratagene).
(§2) Outside‐out patches were excised from eGFP‐positive cells, pulled from thick‐walled (1.5 mm OD × 0.86 mm ID) borosilicate glass capillaries (Harvard Apparatus, UK), fire‐polished and filled with internal solution containing in mM: 97 K aspartate, 20 KCl, 1.5 Na2ATP, 10 EGTA, 9.65 CaCl2 (1 μM free Ca^2+), 10 HEPES Na, 2.5 MgCl2 (pH 7.4 and osmolarity between 280 and 310 mOsm). […] Free Ca^2+ concentrations were calculated using REACT (University of Strathclyde). […] Current was measured using an Axopatch 200A amplifier, low‐pass filtered (cut off 1 kHz, Bessel, Frequency Devices) and acquired at 10 kHz (Pulse, HEKA). […]

[1] = tested on: slow AHP of hippocampal neurons; settings: ref King et al., 2015, Shah & Haylett, 2000, Church et al., 2019, Higham et al.; cited from earlier work
hIKCa (WT) channel = molecular target: T2, hIKCa (WT) channel (Homo sapiens, UniProt O15554); test: Outside-out patch current inhibition, homomeric wildtype hIKCa expressed in tsA201 cells; type: cell-based
T2 construct: expressed in transfected cells; host or cells: tsA201 cells
T2 sequence (O15554 whole entry): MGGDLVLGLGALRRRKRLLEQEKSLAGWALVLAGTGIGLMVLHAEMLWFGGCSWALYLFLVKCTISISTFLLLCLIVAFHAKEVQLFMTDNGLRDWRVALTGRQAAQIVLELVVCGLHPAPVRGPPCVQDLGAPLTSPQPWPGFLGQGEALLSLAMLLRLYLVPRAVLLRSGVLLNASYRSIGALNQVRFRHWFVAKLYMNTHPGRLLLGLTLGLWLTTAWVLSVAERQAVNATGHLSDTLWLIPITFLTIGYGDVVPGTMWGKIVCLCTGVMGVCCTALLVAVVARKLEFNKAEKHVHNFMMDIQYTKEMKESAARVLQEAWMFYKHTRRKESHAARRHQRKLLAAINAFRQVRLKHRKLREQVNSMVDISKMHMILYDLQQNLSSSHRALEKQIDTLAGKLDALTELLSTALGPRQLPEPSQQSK
Protocol: as §1, §2

[2] = molecular target: hSK1[S348T + A371V]:hIKCa heteromeric channel (Homo sapiens, UniProt O15554+Q92952, A355V/S330T); test: Outside-out patch current inhibition, heteromeric hSK1[S348T + A371V]:hIKCa; type: cell-based
Sequence of hSK1[S348T + A371V]:hIKCa heteromeric channel (O15554 whole entry): as above
Sequence of hSK1[S348T + A371V]:hIKCa heteromeric channel (Q92952 whole entry S330T/A355V): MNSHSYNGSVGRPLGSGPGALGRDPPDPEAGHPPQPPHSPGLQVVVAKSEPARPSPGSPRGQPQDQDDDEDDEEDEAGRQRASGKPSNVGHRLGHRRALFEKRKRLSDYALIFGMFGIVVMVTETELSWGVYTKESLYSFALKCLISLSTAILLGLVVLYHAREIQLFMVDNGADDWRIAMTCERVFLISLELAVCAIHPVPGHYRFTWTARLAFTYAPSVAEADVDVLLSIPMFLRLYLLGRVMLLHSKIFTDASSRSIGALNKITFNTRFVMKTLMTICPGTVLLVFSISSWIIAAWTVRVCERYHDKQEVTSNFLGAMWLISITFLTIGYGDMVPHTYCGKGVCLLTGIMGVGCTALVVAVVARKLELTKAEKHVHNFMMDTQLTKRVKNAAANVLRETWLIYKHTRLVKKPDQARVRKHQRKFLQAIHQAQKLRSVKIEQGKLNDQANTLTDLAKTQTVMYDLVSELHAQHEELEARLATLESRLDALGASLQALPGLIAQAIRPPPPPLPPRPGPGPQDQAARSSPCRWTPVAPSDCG
Protocol: as §1, §2

hSK1 channel [3] = tested on: hSK1 channel; set-up: method as in Higham et al., 2019; settings: ref Higham et al., 2019; cited from earlier work
[4] = molecular target: T3, heteromeric hSK1:hIKCa channel (Homo sapiens, UniProt O15554+Q92952); test: Outside-out patch current inhibition, heteromeric wildtype hSK1:hIKCa expressed in tsA201 cells; type: cell-based; settings: for extent of inhibition of heteromeric hSK1:hIKCa current: concentration-inhibition relationship
T3 construct: expressed in transfected cells; host or cells: tsA201 cells
T3 sequence (O15554 whole entry): as the sequence (O15554 whole entry) above
T3 sequence (Q92952 other isoform, or with tags, fused parts or gaps): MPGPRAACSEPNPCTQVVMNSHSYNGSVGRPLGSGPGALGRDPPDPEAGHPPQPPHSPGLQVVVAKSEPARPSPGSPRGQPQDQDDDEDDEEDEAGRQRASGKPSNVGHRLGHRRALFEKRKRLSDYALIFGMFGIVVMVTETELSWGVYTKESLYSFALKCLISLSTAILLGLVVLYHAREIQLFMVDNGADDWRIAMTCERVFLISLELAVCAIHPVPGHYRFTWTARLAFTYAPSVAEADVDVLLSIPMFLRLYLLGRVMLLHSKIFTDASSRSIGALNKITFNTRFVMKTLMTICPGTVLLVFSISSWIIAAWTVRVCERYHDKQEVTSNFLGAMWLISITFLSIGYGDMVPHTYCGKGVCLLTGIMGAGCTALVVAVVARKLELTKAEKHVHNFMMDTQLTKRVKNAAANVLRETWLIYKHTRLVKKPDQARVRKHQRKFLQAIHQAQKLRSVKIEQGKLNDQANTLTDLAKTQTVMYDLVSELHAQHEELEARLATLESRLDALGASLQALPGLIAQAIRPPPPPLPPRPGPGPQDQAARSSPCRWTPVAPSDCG
Protocol: as §1
(§3) Outside‐out patches were excised from eGFP‐positive cells, pulled from thick‐walled (1.5 mm OD × 0.86 mm ID) borosilicate glass capillaries (Harvard Apparatus, UK), fire‐polished and filled with internal solution containing in mM: 97 K aspartate, 20 KCl, 1.5 Na2ATP, 10 EGTA, 9.65 CaCl2 (1 μM free Ca^2+), 10 HEPES Na, 2.5 MgCl2 (pH 7.4 and osmolarity between 280 and 310 mOsm). Cells were bathed in, and patches excised into, an external solution containing in mM: 97 K Aspartate, 30 KCl, 10 HEPES Na^+, 6.19 CaCl2 (1 μM free Ca^2+), 1.44 MgCl2 (pH 7.4, 280–310 mOsm). Free Ca^2+ concentrations were calculated using REACT (University of Strathclyde). […] Current was measured using an Axopatch 200A amplifier, low‐pass filtered (cut off 1 kHz, Bessel, Frequency Devices) and acquired at 10 kHz (Pulse, HEKA). All recordings were made at room temperature. Apamin (Sigma‐Aldrich, UK), 6,12,19,20,25,26‐hexahydro‐5,27:13,18:21,24‐trietheno‐11,7‐metheno‐7H‐dibenzo [b,n] […] UCL1684 was dissolved at a stock concentration of 100 μM in DMSO, and aliquots were stored at −20°C. Finally, apamin was dissolved in distilled water at a stock concentration of 100 μM, and aliquots were stored at −20°C. All compounds were defrosted on the day of recording, with aliquots only thawed once, and desired concentrations were prepared by dilution in external solution.
(§4) Biphasic concentration–inhibition relationships were fitted using the following equation: I/Icontrol=Amin+Afrac−Amin/1+10^LogIC50,a−X×nH,a +Amax−Amin/1+10^LogIC50,b−X×nH,b where A frac is current amplitude at the maximum of the high‐sensitivity component I frac /I cont , IC 50,a is the IC50 of the high‐sensitivity component, n H,a is the Hill coefficient of the high‐sensitivity component, IC 50,b is the IC50 of the low‐sensitivity component, and n H,b is the Hill coefficient of the low‐sensitivity component. […] Statistical significance was determined using appropriate tests that are stated in the figure legend.

[5] = molecular target: hSK1:hIKCa[H389E] channels (Homo sapiens, UniProt O15554+Q92952, H389E); test: Outside-out patch current inhibition, cells co-expressing hSK1 and hIKCa[H389E]; type: cell-based
Sequence of hSK1:hIKCa[H389E] channels (Homo sapiens, UniProt O15554+Q92952, H389E) (O15554 whole entry H389E): as the sequence (O15554 whole entry) above, with H389E counted along it
Sequence of hSK1:hIKCa[H389E] channels (Homo sapiens, UniProt O15554+Q92952, H389E) (Q92952 whole entry): as the sequence (Q92952 whole entry S330T/A355V) above, with T330S, V355A counted along it
Protocol: as §1, §3, §4

[6] = tested on: hSK1[S348T + A371V] channel; test: Outside-out patch current inhibition, homomeric pore mutant hSK1[S348T + A371V]; type: cell-based, human
Protocol: as §1, §2

[7] = molecular target: T3, heteromeric hSK1:hIKCa channel; settings: ref Higham et al., 2019, Church et al.; cited from earlier work
[8] = tested on: hSK1:hIKCa[H389E] channels; test: Outside-out patch current inhibition, cells co-expressing hSK1 and hIKCa[H389E]; type: cell-based, human; settings: biphasic fit, hSK1:hIKCa[H389E]-mediated current
Protocol: as §1, §3, §4

hSK1 channel [9] = test: Outside-out patch current inhibition, homomeric hSK1; type: cell-based, human
Protocol: as §1
Outside‐out patches were excised from eGFP‐positive cells, pulled from thick‐walled (1.5 mm OD × 0.86 mm ID) borosilicate glass capillaries (Harvard Apparatus, UK), fire‐polished and filled with internal solution containing in mM: 97 K aspartate, 20 KCl, 1.5 Na2ATP, 10 EGTA, 9.65 CaCl2 (1 μM free Ca^2+), 10 HEPES Na, 2.5 MgCl2 (pH 7.4 and osmolarity between 280 and 310 mOsm). Cells were bathed in, and patches excised into, an external solution containing in mM: 97 K Aspartate, 30 KCl, 10 HEPES Na^+, 6.19 CaCl2 (1 μM free Ca^2+), 1.44 MgCl2 (pH 7.4, 280–310 mOsm). Free Ca^2+ concentrations were calculated using REACT (University of Strathclyde). […] Current was measured using an Axopatch 200A amplifier, low‐pass filtered (cut off 1 kHz, Bessel, Frequency Devices) and acquired at 10 kHz (Pulse, HEKA). […]
as §4

hSK1 channel [10] = test: Ca2+ activation of ramp currents, inside-out macropatches, homomeric hSK1; type: cell-based, human
Protocol: as §1
(§5) Sensitivity of expressed channels to Ca^2+ was assessed using inside‐out macropatches excised from eGFP‐positive cells, using electrodes of resistance 1–3 MΩ. A range of free Ca^2+ concentrations was used, from 30 nM to 3 μM in half log10 increments. We used external solution to bath inside‐out patches, with the free Ca^2+ concentration calculated to maintain free Mg^2+ at 1 mM. Solutions were designed using REACT, with pH adjusted to 7.4 and osmolarity between 280 and 310 mOsm.

hIKCa channel = molecular target: T4, hIKCa channel (Homo sapiens, UniProt O15554); test: Ca2+ activation of ramp currents, inside-out macropatches, homomeric hIKCa; type: cell-based
T4 construct: expressed in transfected cells; host or cells: tsA201 cells
T4 sequence (O15554 whole entry): as the sequence (O15554 whole entry) above
Protocol: as §1, §5

[11] = tested on: SK channels native to CA1 hippocampal neurons; set-up: method as in Hirschberg et al., 1999; settings: ref Hirschberg et al., 1999; read-out: EC50 for activation of SK channels native to CA1 hippocampal neurons; cited from earlier work
[12] = molecular target: T3, heteromeric hSK1:hIKCa channel; test: Ca2+ activation of ramp currents, inside-out macropatches, heteromeric hSK1:hIKCa; type: cell-based
Protocol: as §1, §5

[13] = concentration-inhibition relationship

T1 sequence (O15554 whole entry H389E): as the sequence (O15554 whole entry) above, with H389E counted along it

Clc1ccccc1C(c1ccccc1)(c1ccccc1)n1cccn1 [TRAM‐34, 1‐[(2‐chlorophenyl)diphenylmethyl]‐1H‐pyrazole]
block of hIKCa[H389E]-mediated current (hIKCa[H389E] channel): 83.7 ± 2.0%
sensitivity of the slow AHP [1]: sensitive
extent of inhibition of homomeric hIKCa-mediated current (hIKCa (WT) channel; [13]): fully inhibited
inhibition at 10 µM (hIKCa (WT) channel; tsA201, TRAM-34 10 μM, read-out: inhibition of hIKCa (WT)-mediated current): 87 ± 2.6%
extent of inhibition of hSK1[S348T + A371V]:hIKCa current ([2]; TRAM-34 10 μM): fully sensitive
effect on wildtype hSK1-mediated current (hSK1 channel [3]): insensitive; also recorded: does not affect
extent of inhibition of heteromeric hSK1:hIKCa current [4]: sub‐maximal inhibition
extent of inhibition of hSK1:hIKCa[H389E] current [5, 13]: only partially inhibited
extent of block of hSK1[S348T + A371V]-mediated current ([6]; TRAM-34 10 μM): fully blocked
sensitivity of hSK1:hIKCa channel current [7]: sensitive

[Br-].[Br-].c1cc2cc(c1)C[n+]1ccc(c3ccccc31)NCc1ccc(cc1)CNc1cc[n+](c3ccccc13)C2 [UCL1684, 6,12,19,20,25,26‐hexahydro‐5,27:13,18:21,24‐trietheno‐11,7‐metheno‐7H‐dibenzo [b,n] [1,5,12,16]tetraazacyclotricosine‐5,13‐diium dibromide]
extent of inhibition of heteromeric hSK1:hIKCa current [4]: sub‐maximally inhibited
IC50 ([4]; outside-out patches, tsA201 cells, 1 μM free Ca2+, sub-maximal inhibition, read-out: IC50 for inhibition of heteromeric hSK1:hIKCa (WT) current): 0.236 ± 0.082 µM
nH(a) of the high-sensitivity component [8]: 0.910 ± 0.02
nH(b) of the low-sensitivity component [8]: 0.930 ± 0.1
IC50 ([8]; read-out: IC50(a) of the high-sensitivity component): 0.000511 ± 2e-07 µM
IC50 ([8]; read-out: IC50(b) of the low-sensitivity component): 0.301 ± 0.0846 µM
maximal inhibition of hSK1:hIKCa[H389E]-mediated current ([5]; two component concentration-inhibition curve): 50.9 ± 12.5%
extent of inhibition of homomeric hSK1-mediated current (hSK1 channel [9]; [13]): maximally inhibited
difference in sensitivity between homomeric hSK1-mediated and heteromeric hSK1:hIKCa-mediated current (hSK1 channel [9]; hSK1 versus hSK1:hIKCa): < 200 fold
IC50 (hSK1 channel [9]; outside-out patches, tsA201 cells, maximal inhibition, read-out: IC50 for inhibition of homomeric hSK1-mediated current): 0.000783 ± 0.00038 µM

[Ca+2] [Ca^2+]
activity of homomeric hSK1 channels at 100 nM Ca2+ (hSK1 channel [10]; 100 nM Ca2+): inactive
nH for activation of homomeric hSK1-mediated current (hSK1 channel [10]; inside-out patches): 5.26 ± 0.82
EC50 (hSK1 channel [10]; inside-out patches, tsA201 cells, read-out: EC50 for activation of homomeric hSK1-mediated current): 0.531 ± 0.078 µM
activity of homomeric hIKCa channels at 100 nM Ca2+ (hIKCa channel; 100 nM Ca2+): 10%
nH for activation of homomeric hIKCa-mediated ramp currents (hIKCa channel; inside-out patches): 4.10 ± 0.57
EC50 (hIKCa channel; inside-out patches, tsA201 cells, read-out: EC50 for activation of homomeric hIKCa-mediated ramp currents): 0.409 ± 0.0153 µM
EC50 [11]: 0.56 µM
activity of heteromeric hSK1:hIKCa channels at 100 nM Ca2+ ([12]; 100 nM Ca2+): inactive
nH for activation of heteromeric hSK1:hIKCa-mediated ramp currents ([12]; inside-out patches): 3.93 ± 0.29
EC50 ([12]; inside-out patches, tsA201 cells, read-out: EC50 for activation of heteromeric hSK1:hIKCa-mediated ramp currents): 0.613 ± 0.0276 µM

apamin: SK channel inhibitor; negative allosteric inhibitor for SK1–3 channels (CNCKAPETALCARRCQQH; not fully specified (C-terminus, bridges); cysteine pairing not given here; UniProt P01500 28-45, looked up)
sensitivity of the slow AHP [1]: insensitive
sensitivity of hSK1[S348T + A371V]:hIKCa current ([2]; apamin 100 nM): insensitive
effect on current from cells co-expressing wildtype hSK1 and hIKCa ([4]; apamin 100 nM): had no effect
reduction of current amplitude, cells co-expressing hSK1 and hIKCa[H389E] ([5]; apamin 100 nM): 17.3 ± 1.8%
extent of inhibition of hSK1[S348T + A371V] current ([6]; apamin 100 nM): completely inhibited
sensitivity of hSK1:hIKCa channel current [7]: insensitive

charybdotoxin
sensitivity of the slow AHP [1]: sensitive
sensitivity of hSK1:hIKCa channel current [7]: sensitive
